According to patent US8012944B2, “Method for treating cancer using IAP antisense oligomer and chemotherapeutic agent” (Pharmascience Inc., priority 2003, dated 2011):
Entries after “also recorded” stand apart in the source; their conditions may differ.

Legend:
Bcl-2 and Bax = assay: Bcl-2:Bax ratio in H460 cells (western blot); format: cell-based, human; conditions: 1.2 μM
Experimental: FIGS. 11A and 11B are schematic illustrations showing XIAP oligonucleotide-mediated effects on caspase activation. The effect of XIAP oligonucleotides F3, G4, or C5, or their respective RP and SC ODN controls at 1.2 μM on the expression of pro-caspase-3, PARP (both full length (116 kDa) and processed (85 kDa)) (FIG. 10A) and Bcl-2 and Bax protein levels (FIG. 10B) in transfected H460 cells compared to control is shown. Proteins expression was analyzed by western blotting. Bcl-2 and Bax protein levels were normalized to cellular actin levels and quantified by densitometry. […]
The cells or tumor tissue samples were lysed with ice-cold lysis buffer (50 mM Tris, 150 mM NaCl, 2.5 mM EDTA, 0.1% SDS, 0.5% sodium deoxycholate, 1% NP-40, 0.02% sodium azide) containing protease inhibitors (Complete-Mini protease inhibitor tablets; Boehringer Mannheim GmBH, Mannheim, Germany). […] Protein content in the lysed extracts was determined using a detergent-compatible Bio-Rad assay (Bio-Rad Labs, Hercules, Calif.). […] Proteins were detected by enhanced chemiluminescence (ECL; Amersham Pharmacia Biotech, Buckinghamshire, England) and visualized after exposure to Kodak autoradiography film. Scanning densitometry (Molecular Dynamics, Sunnyvale, Calif.) was performed to quantify band intensities by volume/area integration. […]

H460 cells [1] = assay: Apoptotic flow cytometric assay (PI staining, hypo-diploid DNA content); format: cell-based, human; conditions: 1.2 μM, untreated control 16.6%
Experimental: Cells were treated with liposome-oligonucleotide complexes for 4.5 h, and incubated for another 48 h in the medium without transfection reagent at 37° C. Following incubation, cells were harvested, washed twice with sample buffer (0.5% glucose in PBS without Ca^++ and Mg^++), and fixed in cold 70% ethanol at 4° C. for at least 18 hrs. Samples were centrifuged at 3000 rpm for 10 min, then resuspended in sample buffer containing 50 μg/ml propidium iodide (PI) and 400 U/ml RNase A. Samples were incubated for 30 min at room temperature and 30 min on ice, followed by flow cytometry analysis. EXPO Software (Applied Cytometry Systems, Sacramento, Calif.) was used to generate histograms, which were used to determine the cell cycle phase distribution after debris exclusion. The Sub G1/G0 cell fraction was considered as representative for apoptotic cells.

H460 cells [2] = assay: Nuclear morphology (DAPI staining); format: cell-based, human; conditions: 1.2 μM
Experimental: Cells were treated with liposome-oligonucleotde complexes for 4.5 h, and incubated for another 48 h at 37° C. in the medium without transfection reagent or oligonucleotides. Cells were harvested and stained with 0.10 μg/ml DAP1 (4′, 6-diamidino-2-2-phenylindole) for 30 min at room temperature. Cells were placed on a glass slide, cytospun, and viewed with a Leica microscope and 40× objective lens under UV fluorescent illumination. Digital images were captured using Imagedatabase V. 4.01 Software (Leica, Germany).

H460 cells [3] = assay: H460 cell growth, viability or death (MTT assay); format: cell-based, human; conditions: 1.2 μM
Experimental: Growth inhibition of […] cells was determined by the colorimetric MTT cell viability/proliferation assay. In brief, cells were treated with liposome-oligonucleotide complexes for 4.5 h, then incubated for another 48 h at 37° C. in medium without transfection reagent or oligonucleotides in the presence or absence of anticancer drugs. MTT (25 μg/well) was added to each well, and the plates incubated for 3 h at 37° C. Following the incubation step, the colored formazan product was dissolved by the addition of 200 μl DMSO. Plates were read using the microtiter plate reader (Dynex Technologies Inc., Chantilly, Va.) at a wavelength of 570 nm. The percentage of surviving cells in wells treated with oligonucleotides was normalized to untreated controls. All assays were performed in triplicate.

[4] = test system: MDA-MB-435/LCC6 human breast carcinoma xenografts; assay: Systemic (i.p.) PS-oligonucleotides in LCC6 breast carcinoma xenografts; format: in vivo, female SCID-RAG2 mice; conditions: 12.5 mg/kg i.p.; day 35, two weeks after the last treatment
Experimental: Initial systemic PS-oligonucleotide studies were designed without any chemotherapeutic agents. SCID-RAG2 mice were inoculated with H460 human lung carcinoma cells (s.c. shoulder injection of 10^6 cells) and treatments with G4 and F3 AS PS-oligonucleotides, as well as a scrambled control, were initiated three days after tumor inoculation. Nucleobase oligomer injections were administered i.p. at 12.5 mg/kg three times a week for three weeks. At the end of the treatment period, mean tumor sizes in the groups treated with either G4 or F3 AS oligonucleotides were ˜50% smaller than in the group treated with a scrambled control oligonucleotides (FIG. 15). The same treatment protocol was tested on female SCID-RAG2 mice inoculated orthotopically with MDA-MB-435/LCC6 human breast carcinoma cells. Two weeks after the last treatment (day 35) tumor volumes of mice treated with F3, C5 or G4 AS oligonucleotides were 70%, 60%, and 45%, respectively, smaller than vehicle controls (FIG. 16).
Efficacy experiments were conducted in male RAG2 immunodeficient mice bearing NCI-H460 tumours or female RAG2 mice bearing LCC6 tumors. Treatments were commenced on day 3 after tumor inoculation. Saline (controls), G4 AS oligonucleotides (5 or 15 mg/kg), or G4 SC oligonucleotides (5 or 15 mg/kg) were administered i.p. daily for five doses a week over a three week regimen. Vinorelbine (VNB, 5 or 10 mg/kg) was administered i.v. via the tail vein, either alone or in combination with oligonucleotides, at day 3, 7, 11 and 17 after tumor inoculation. When oligonucleotides were administered in combination with VNB, the drug treatment was performed four hours after ODN treatment.

GCTGAGTCTCCATATTGCC [G4 AS] (chemistry not given here)
ratio of Bcl-2:Bax (Bcl-2 and Bax): unchanged | hypo-diploid DNA content of cells (H460 cells [1]): 40.8% | nuclear morphological changes characteristic of apoptosis (H460 cells [2]): underwent morphological changes characteristic of apoptosis; also recorded: significant nuclear DNA condensation and fragmentation | cell death (H460 cells [3]; H460 cells): 60% | reduction of H460 cell growth relative to untreated control (H460 cells [3]; MTT, 48 hours after transfection): 55% | tumor volumes smaller than vehicle controls [4]: 45%
